Test results published in patent US7964558B2, “Therapeutic applications for C-peptide” (La Jolla, priority 2003, dated 2011).

Legend:
[1] = dose injected into a rat; expected; cited from earlier work
Na+K+ATPase = Na+K+ATPase activity in the sciatic nerve of diabetic BB/Wor rats; format: in vivo, rat; conditions: once daily dose 75 nmol/kg, 8 weeks, sciatic nerve (FIG. 4)
Description: (§1) Prediabetic male BB/Wor rats were used. Ten rats were used in each group, where the animals were closely age-matched. They were maintained in metabolic cages with free access to water and rat chow. Bodyweight, urine volume and glucosuria were monitored daily to ascertain onset of diabetes. Immediately after the onset of diabetes, administration of C-peptides was commenced in either a single dose/24 hours, three doses/24 hours or as a continuous infusion by osmopump.
(§2) The single dose given was 75 nmol/kg and the three doses given were each 25 nmol/kg. The continuous infusion gave a dose of 75 nmol/kg over a 24 hour period.
(§3) Synthetic rat C-peptide II with a purity of more than 98% by HPLC was used (Genosys, Cambridge, UK) dissolved in saline (12 mg/ml). Control rats were given a dose of saline instead of C-peptide. […]
For Na^+/K^+-ATPase activity, nerve samples were homogenized in 2 ml of 0.2 mol/l sucrose and 0.02 mol/l TRIS-HCl at pH 7.5. […] Na^+/K^+-ATPase activity was defined as the difference before and after ouabain and was expressed as μmol ADP formed per gram of wet weight per hour.
(§4) Statistical analysis. The results are presented as means±SE and the significance of differences was calculated by analysis of variance (ANOVA). Group differences were assessed by post hoc analysis using the Student-Newman-Keul test. […]

[2] = in humans; cited from earlier work
diabetic BB/Wor rats [3] = test: Morphometric and teased fibre assessment of sural nerve in diabetic BB/Wor rats; format: in vivo, rat; conditions: once daily dose 75 nmol/kg, 8 weeks, compared to diabetic rats (FIG. 5)
Description: as §1, §2, §3
Teased fibre examinations. A mean of 168±4 myelinated fibres were teased from each sural nerve and scored for specific changes. […] Changes were expressed as percentages of total fibres.
as §4

diabetic BB/Wor rats [4] = test: Nerve conduction velocity in motor and sensory (sciatic-tibial) nerves of diabetic BB/Wor rats; format: in vivo, rat
Description: Further technical details can be found in Sima et al., Diabetologia (2001) 44: 889-897.
as §1, §2
Synthetic rat C-peptide II with a purity of more than 98% by HPLC was used (Genosys, Cambridge, UK) dissolved in saline (12 mg/ml). Control rats were given a dose of saline instead of C-peptide.
The nerve conduction velocity in motor and sensory nerves and Na^+K^+ATPase levels in the rats were measured. Baseline nerve conduction velocity was measured within 24 hours of onset of diabetes. […]
as §4

## C-peptide: Synthetic rat C-peptide II, purity more than 98% by HPLC (Genosys), dissolved in saline; used in Example 1 (EVEDPQVGQVELGAGPGAGSEQTLALEVARQ; Ins Rodent C-peptide)
[1]
  time to disappear entirely from circulation: 2 to 3 h
Na+K+ATPase
  Na+K+ATPase activity: clearly and sufficiently improved
[2]
  half-life: approximately 30 minutes
Diabetic BB/Wor rats [3]
  morphology of cells (morphometric data): improved morphology
Diabetic BB/Wor rats [4]; nerve conduction velocity and Na+K+ATPase activity, 75 nmol/kg once daily vs 3 x 25 nmol/kg daily or 75 nmol/kg/24 h continuous infusion by osmopump
  effectiveness of once daily dose compared with other dosing regimens: as effective as three daily dose or a continuous infusion
Diabetic BB/Wor rats [4]; once daily dose 75 nmol/kg, 8 weeks, diabetic BB/Wor rats, motor and sensory nerves (FIGS. 2, 3)
  nerve conduction velocity: clearly and sufficiently improved
